Assay results taken from patent publication US10314305B2, “Liquid agrochemical compositions comprising a polymeric thickener and an alcohol-containing solvent system, and liquid herbicidal compositions having an alcohol-containing solvent system” (Syngenta Participations AG, priority 2012, dated 2019).

Assay: Solubility of active ingredients in solvents

SMILES: CCc1cc(C)cc(CC)c1-c1c(OC(=O)C(C)(C)C)n2n(c1=O)CCOCC2 [pinoxaden, 8-(2,6-diethyl-4-methylphenyl)-1,2,4,5-tetrahydro-7-oxo-7H-pyrazolo[1,2-d][1,4,5]oxadiazepin-9-yl 2,2-dimethylpropionate]
- Solvent quality of 1,2-propylene carbonate for the active ingredient (1,2-propylene carbonate): only a moderately good solvent
- Solvent quality of tetrahydrofurfuryl alcohol (THFA) for the active ingredient (THFA): excellent solvent
- Solvent quality of benzyl alcohol for the active ingredient (benzyl alcohol): excellent solvent
